According to US12660819B2, “Herbicidal derivatives” (SYNGENTA CROP PROTECTION AG, priority 2020, dated 2026):

Legend:
Assay type in all cases: in vivo
Setaria faberi (SETFA) [1] = assay: Pre-emergence Test (glasshouse, percentage damage to the plant); conditions: 1000 g/ha unless otherwise stated, five-point scale
Zea mays (ZEAMX) [2] = assay: as above; conditions: 1000 g/ha unless otherwise stated, five-point scale
[3] = test system: Abutilon theophrasti (ABUTH); assay: as above; conditions: 1000 g/ha unless otherwise stated, five-point scale
[4] = test system: Ipomoea hederacea (IPOHE); assay: as above; conditions: 1000 g/ha unless otherwise stated, five-point scale
[5] = test system: Echinochloa crus-galli (ECHCG); assay: as above; conditions: 1000 g/ha unless otherwise stated, five-point scale
[6] = test system: Amaranthus retoflexus (AMARE); assay: as above; conditions: 1000 g/ha unless otherwise stated, five-point scale
[7] = test system: Amaranthus retoflexus (AMARE); assay: Post-emergence Test (glasshouse, percentage damage to the plant); conditions: post-emergence spray, 1000 g/ha unless otherwise stated, evaluated after 13 days
Summary of the method: (§1)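 Seeds sown in pots in glasshouse (24/16 °C day/night, 14 h light, 65% humidity), then sprayed with compound at 1000 g/ha unless stated, from acetone/water 50:50 with 0.5% Tween 20. Damage assessed 13 days later on five-point scale (1=0–20% to 5=81–100%).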

Setaria faberi (SETFA) [8] = assay: as above; conditions: post-emergence spray, 1000 g/ha unless otherwise stated, evaluated after 13 days
Summary of the method: (§2)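 Sown pots; spray 1000 g/ha (unless stated) in acetone/water 50:50 + 0.5% Tween 20; glasshouse 24/16 °C, 14 h light, 65% RH; watered twice daily; % damage read at 13 days, scored 1–5.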

Zea mays (ZEAMX) [9] = assay: as above; conditions: post-emergence spray, 1000 g/ha unless otherwise stated, evaluated after 13 days
Summary of the method: as §2

[10] = test system: Ipomoea hederacea (IPOHE); assay: as above; conditions: post-emergence spray, 1000 g/ha unless otherwise stated, evaluated after 13 days
Summary of the method: as §2

[11] = test system: Echinochloa crus-galli (ECHCG); assay: as above; conditions: post-emergence spray, 1000 g/ha unless otherwise stated, evaluated after 13 days
Summary of the method: as §1

[12] = test system: Abutilon theophrasti (ABUTH); assay: as above; conditions: post-emergence spray, 1000 g/ha unless otherwise stated, evaluated after 13 days
Summary of the method: as §1

SMILES	percentage damage to the plant, SETFA (Setaria faberi (SETFA) [1])	percentage damage to the plant, ZEAMX (Zea mays (ZEAMX) [2])	percentage damage to the plant, ABUTH [3]	percentage damage to the plant, IPOHE [4]	percentage damage to the plant, ECHCG [5]	percentage damage to the plant, AMARE [6]	Post-emergence Test AMARE, percentage damage to the plant (five-point scale) [7]	Post-emergence Test SETFA, percentage damage to the plant (five-point scale) (Setaria faberi (SETFA) [8])	Post-emergence Test ZEAMX, percentage damage to the plant (five-point scale) (Zea mays (ZEAMX) [9])	Post-emergence Test IPOHE, percentage damage to the plant (five-point scale) [10]	Post-emergence Test ECHCG, percentage damage to the plant (five-point scale) [11]	Post-emergence Test ABUTH, percentage damage to the plant (five-point scale) [12]
CCn1c(C)c(-c2ccc(F)c(OCC(F)(F)F)c2)c(=O)c(C(=O)O)c1-c1ccc(Cl)c(Cl)c1 [Compound 105, 2-(3,4-dichlorophenyl)-1-ethyl-5-[4-fluoro-3-(2,2,2-trifluoroethoxy)phenyl]-6-methyl-4-oxo-pyridine-3-carboxylic acid]	4 (4=61-80%)	1 (1=0-20%)	1 (1=0-20%)	1 (1=0-20%)	2 (2=21-40%)	3 (3=41-60%)	2 (2=21-40%)	4 (4=61-80%)	2 (2=21-40%)	1 (1=0-20%)	3 (3=41-60%)	2 (2=21-40%)
CCn1c(C)c(-c2ccc(Cl)s2)c(=O)c(C(=O)O)c1-c1ccc(Cl)cc1 [Compound 166, 2-(4-chlorophenyl)-5-(5-chloro-2-thienyl)-1-ethyl-6-methyl-4-oxo-pyridine-3-carboxylic acid]	0	0	1 (1=0-20%)	1 (1=0-20%)	0	1 (1=0-20%)	2 (2=21-40%)	3 (3=41-60%)	1 (1=0-20%)	1 (1=0-20%)	2 (2=21-40%)	3 (3=41-60%)
CCn1c(C)c(-c2ccc(OC)c(OC)c2)c(=O)c(C(=O)O)c1-c1ccc(Cl)c(Cl)c1 [Compound 99, 2-(3,4-dichlorophenyl)-5-(3,4-dimethoxyphenyl)-1-ethyl-6-methyl-4-oxo-pyridine-3-carboxylic acid]	4 (4=61-80%)	2 (2=21-40%)	2 (2=21-40%)	1 (1=0-20%)	3 (3=41-60%)	2 (2=21-40%)	3 (3=41-60%)	4 (4=61-80%)	2 (2=21-40%)	2 (2=21-40%)	4 (4=61-80%)	3 (3=41-60%)
CCOc1cc(-c2c(C)n(CC)c(-c3ccc(Cl)c(Cl)c3)c(C(=O)O)c2=O)cc(C(F)(F)F)c1 [Compound 88, 2-(3,4-dichlorophenyl)-5-[3-ethoxy-5-(trifluoromethyl)phenyl]-1-ethyl-6-methyl-4-oxo-pyridine-3-carboxylic acid]	4 (4=61-80%)	1 (1=0-20%)	1 (1=0-20%)	1 (1=0-20%)	1 (1=0-20%)	1 (1=0-20%)	2 (2=21-40%)	2 (2=21-40%)	1 (1=0-20%)	1 (1=0-20%)	2 (2=21-40%)	2 (2=21-40%)
